Results from patent publication US20220184091A1, “Methods of Treating Cancer with Chk1 Inhibitors” (Sierra Oncology, Inc., priority 2019, published 2022).
Like-named read-outs stand apart in the source and are kept apart here.

Experiments:
[1] = SRA737 plasma and tumor concentrations in HT29 xenograft model; format: in vivo; details: mouse, oral
Description: For each dose, columns from left to right are concentrations in plasma at 6 hours, plasma at 24 hours, tumor at 6 hours, and tumor at 24 hours, respectively.
The effect of SRA737 on Gemcitabine induced Chk1 S296 autophosphorylation was assessed as described in Walton et al. (Oncotarget. 2016 Jan. 19; 7(3): 2329-2342), herein incorporated by reference for all it teaches. Briefly, mice bearing HT29 tumor xenografts were administered (i) vehicle control or (ii) gemcitabine (100 mg/kg in saline, IV) or ([…]) and gemcitabine (100 mg/kg) with SRA737 administered 24 hours following gemcitabine administration (n=3 per time point per treatment). […] Exposure in the tumor was greater than 10-fold higher than in plasma. The circulating plasma concentration at this 24-hour timepoint corresponded to a free drug concentration of approximately 6 nM (2 ng/mL) based on plasma protein binding in mice of 94%.

[2] = system: CD4+ and CD8+ cells; experiment: CD4 and CD8 IHC staining in MC38 tumors; format: in vivo, mouse; details: after 14 days, SRA737 7-days-on/7-days-off, antibody Days 3, 7 and 11
Description: Measurements were taken post treatment on day 15.
For immunohistochemistry, cryosections (8 μm) of tumor tissues were fixed with acetone and stained with antibody against mouse CD4 (Sinobiological, Cat. no. 50134-R001) and CD8 (eBioscience, Cat. No. 14-0808-82) and horseradish peroxidase-conjugated secondary antibody. The image of the entire stained tumor section was scanned with an Olympus BX41 microscope and a semi-quantitative immunohistochemical score was determined by visual examination of the entire stained section of the tumor. The score between 0-6 was assigned by taking into consideration the intensity of positive staining within the tumor section and the prevalence of positive staining within the entire tumor section.
The MC38 tumors were then harvested after 14 days of treatment with SRA737 monotherapy and its combination therapy with an […] (Days 3, 7 and 11) according to a modified dosing regimen of 7-days-on/7-days-off to determine the infiltration of CD4+ and CD8+ cells by immunohistochemistry staining. […] The tumor growth inhibition under this altered dosing regimen was 61% in SRA737 monotherapy and 63% in the combination therapy of SRA737 and anti-PD-1. […]

[3] = system: STING pathway; experiment: Western blot of STING pathway markers in SCLC cell lines; format: cell-based; details: H1694 and H847 cell lines; 1 μM; 24 and 72 hours
Description: (§1) Western blot analysis was performed using SDS-PAGE followed by transfer to nitrocellulose membrane using the BioRad Gel system. Membranes were incubated in the following primary antibodies (1:1000) overnight: PD-L1 (CST), total and phospho- (S366) STING (CST), total and phospho- (S396) IRF3 (CST), phospho-YH2AX (CST) and Actin (Sigma). Secondary anti-rabbit, HRP-linked antibodies were purchased from Cell Signaling Biosciences and detected using the Chemidoc imaging system mage-captured with Image Studio Version 3.1 software.

[4] = system: PD-L1; experiment: Western blot of total PD-L1 in SCLC cell lines; format: cell-based; details: all SCLC cell lines tested; 1 μM for 72 hours
Description: as §1

[5] = system: RPP tumor; experiment: Flank RPP (SCLC) tumor growth in B6129F1 immunocompetent mice; format: in vivo, mouse; details: anti-PD-L1 300 μg 1-day-on/6-days-off
Description: Tumors were evaluated twice weekly for the duration of the study. Tumor volumes were measured on all mice three times per week and calculated (width^2×length×0.4) using manual calipers. Once the average tumor size was in the range of 120-150 mm^3, mice were randomized into dosing groups using stratified sampling by assigning three animals per group for short-term reverse-phase protein array analysis and long-term treatment. Dosing schedules and duration varied depending on the study. Mice were weighed three times per week for the duration of the study, and a decrease in body weight >15% was considered indicative of a toxic dose. The Student t-test was used to determine statistical significance between compound- and vehicle-treated groups.
[…] 15A.

[6] = system: CXCL10 and CCL5; experiment: qPCR of CXCL10 and CCL5 in MC38 tumors; format: in vivo, mouse
From the text: FIGS. 23A-D show the qPCR measurement of CXCL10 and CCL5 mRNA expression in MBT-2 (FIG. 23A and FIG. 23B) and MC38 (FIG. 23C and FIG. 23D) tumors resected after 7 or 14 days of treatment with SRA737 5/7 days. Data presented as mean±SD and p values by t-test * p<0.05, **p<0.01, ***p<0.001.
Real-time PCR was done using SYBR Select Master Mix (Life Technologies, cat #4472908) according to the manufacturer's protocol. Primers were purchased from Sigma Aldrich, Inc. Triplicate PCR reactions were run on ABI (7500 Fast Real Time PCR System). The comparative Ct method using the average 2ΔΔCT value for each set of triplicates was used, and the average of the biological replicates was calculated. Negative controls were included for every primer set, and GAPDH was used as the […].
The flank of immunocompetent mice was then treated with SRA737 monotherapy for 5-days-on/2-days-off for either one or two cycles and the expression of CCL5 and CXCL10 in extracted tumors were analyzed. […] The previously used dosing regimen of 5-days-on/2-days-off was modified to a schedule of 7-days-on/7-days-off for SRA737 treatment with or without co-treatment with anti-PD1 (Days 3, 7 and 11) based on the results of induction of chemokines secretion after 7 days.

For `N#Cc1cnc(Nc2cc(NCC3CNCCO3)c(C(F)(F)F)cn2)cn1` (stereo not shown) [SRA737, 5-[[4-[[morpholin-2-yl]methylamino]-5-(trifluoromethyl)-2-pyridyl]amino]pyrazine-2-carbonitrile], which concentration at 6 h ([1]; plasma, HT29 xenograft, Dose 12.5 mg/kg, read-out: Plasma (6 h)) is on record?
Its concentration at 6 h is 1.01 µM.

And the concentration at 24 h ([1]; plasma, HT29 xenograft, Dose 12.5 mg/kg, read-out: Plasma (24 h))?
Its concentration at 24 h is 0.0777 µM.

What about the concentration at 6 h ([1]; plasma, HT29 xenograft, Dose 25 mg/kg, read-out: Plasma (6 h)) of the same compound?
The concentration at 6 h was 2.52 µM.

What about the concentration at 24 h ([1]; plasma, HT29 xenograft, Dose 25 mg/kg, read-out: Plasma (24 h)) of the same compound?
The concentration at 24 h was 0.893 µM.

What about the concentration at 6 h ([1]; plasma, HT29 xenograft, Dose 50 mg/kg, read-out: Plasma (6 h)) of the same compound?
The concentration at 6 h was 3.96 µM.

And the concentration at 24 h ([1]; plasma, HT29 xenograft, Dose 50 mg/kg, read-out: Plasma (24 h))?
The concentration at 24 h was 0.512 µM.

And the concentration at 6 h ([1]; plasma, HT29 xenograft, Dose 100 mg/kg, read-out: Plasma (6 h))?
The concentration at 6 h was 5.84 µM.

What about the concentration at 24 h ([1]; plasma, HT29 xenograft, Dose 100 mg/kg, read-out: Plasma (24 h)) of the same compound?
The concentration at 24 h was 1.67 µM.

What about the concentration at 24 h ([1]; plasma, mice, PK/PD benchmark) of the same compound?
The concentration at 24 h was > 0.1 µM.

What about the concentration at 6 h ([1]; tumor, HT29 xenograft, Dose 3.125 mg/kg, read-out: Tumor (6 h)) of the same compound?
The concentration at 6 h was 3.18 µM.

And the concentration at 24 h ([1]; tumor, HT29 xenograft, Dose 3.125 mg/kg, read-out: Tumor (24 h))?
Its concentration at 24 h is 0.646 µM.

And the concentration at 6 h ([1]; tumor, HT29 xenograft, Dose 6.25 mg/kg, read-out: Tumor (6 h))?
The concentration at 6 h was 4.01 µM.

And the concentration at 24 h ([1]; tumor, HT29 xenograft, Dose 6.25 mg/kg, read-out: Tumor (24 h))?
The concentration at 24 h was 0.966 µM.

What about the concentration at 6 h ([1]; tumor, HT29 xenograft, Dose 12.5 mg/kg, read-out: Tumor (6 h)) of the same compound?
Its concentration at 6 h is 19 µM.

And the concentration at 24 h ([1]; tumor, HT29 xenograft, Dose 12.5 mg/kg, read-out: Tumor (24 h))?
The concentration at 24 h was 3.97 µM.

What about the concentration at 6 h ([1]; tumor, HT29 xenograft, Dose 25 mg/kg, read-out: Tumor (6 h)) of the same compound?
The concentration at 6 h was 37.5 µM.

And the concentration at 24 h ([1]; tumor, HT29 xenograft, Dose 25 mg/kg, read-out: Tumor (24 h))?
The concentration at 24 h was 16.3 µM.

And the concentration at 6 h ([1]; tumor, HT29 xenograft, Dose 50 mg/kg, read-out: Tumor (6 h))?
The concentration at 6 h was 76.3 µM.

And the concentration at 24 h ([1]; tumor, HT29 xenograft, Dose 50 mg/kg, read-out: Tumor (24 h))?
Its concentration at 24 h is 27.5 µM.

What about the concentration at 6 h ([1]; tumor, HT29 xenograft, Dose 100 mg/kg, read-out: Tumor (6 h)) of the same compound?
Its concentration at 6 h is 132 µM.

What about the concentration at 24 h ([1]; tumor, HT29 xenograft, Dose 100 mg/kg, read-out: Tumor (24 h)) of the same compound?
The concentration at 24 h was 102 µM.

What about the “infiltration of CD4+ and CD8+ cells into the tumors” value [2] of the same compound?
Its value is “significant increase”.

And the “STING pathway (pSTING_S366, STING, pIRF3_S396 and IRF3)” value [3]?
The value was “Activation of the STING pathway”.

And the “total PD-L1 levels” value [4]?
The value was “significantly increased”.

What about the “anti-tumor response (tumor growth)” value ([5]; SRA737 100 mg/kg 3-days-on/4-days-off or 5-days-on/2-days-off) of the same compound?
Its value is “significant reduction in tumor growth”.

And the “anti-tumor effect (tumor volume)” value ([5]; LDG 40 mg/kg 1-day-on/6-days-off, SRA737 100 mg/kg 2-day-on/5-days-off)?
Its value is “no significant anti-tumor effect”.

And the “expression of CCL5” value ([6]; after 7 days)?
Its value is “modestly but not statistically significantly reduced”.

And the CXCL10 levels ([6]; after 14 days, p<0.05)?
Its CXCL10 levels is “significantly increased”.
